What was measured:
lens elasticity [1] = assay: Pharmacological Test-3: lens elasticity, Compounds 5 and 6, 3 times per day for 14 days; type: in vivo,  mice
Description: The effects of Compounds 5 and 6 on the lens elasticity were investigated.
Compound 5 was stirred with the addition of Vehicle C to give a 0.03% (w/v) solution.
Compound 6 was stirred with the addition of Vehicle C to give a 0.03% (w/v) solution.
EV06 was stirred with the addition of Vehicle C to give a 0.03% (w/v) solution, which was used for comparison to the samples of Compounds 5 and 6.
1) Each test sample (2.5 μL/eye) was instilled into both eyes of 9-month-old […] mice with a Pipetman 3 times per day (around 9:00, 13:00 and 17:00) for 14 days. 2) After the final instillation, the mice were euthanized by carbon dioxide inhalation, and then the eyeballs were extracted and rinsed with Hank's balanced salt solution (HESS). 3) The sclera near the optic nerve was cut with a razor, the lens was removed through the incision, and the removed lens was immersed in HESS. 4) The lens was placed on a glass slide, and an all-in-one fluorescence microscope BZ-9000 (Keyence) was used to capture an image of the lens (Image a). 5) Next, one cover glass (Corning^(registered trade mark) 22×22 mm Square) was placed on the lens, and an image in which the thickness of the lens changed due to the weight was similarly captured (Image b). 6) A change in the lens diameter was calculated from the following Equation 1 wherein the lens diameter of Image a is subtracted from the lens diameter of Image b. Then, the lens elasticity improvement of each sample group compared with the vehicle control group was calculated from Equation 2 described below. The mean value of the vehicle control group was based on 8 eyes, and the mean value of each of the sample groups of Compounds 5 and 6 and EV06 was based on 10 eyes.
(§1) Change in lens diameter=Lens diameter in Image b of each test sample−Lens diameter in Image a of each test sample (Equation 1)
(§2) Lens elasticity improvement of each sample group=Mean change in lens diameter of each Test sample group−Mean change in lens diameter of Vehicle control group (Equation 2)

lens elasticity [2] = assay: Pharmacological Test-5: lens elasticity, once-daily instillation for 1 week; type: in vivo, C57BL/6J mice
Description: The effect of once-daily instillation of Compound for 1 week on the lens elasticity was examined.
Compound 1 was stirred with the addition of Vehicle C to give a 0.1% (w/v) solution. A 0.03% […] solution and a 0.01% (w/v) solution were prepared in the same manner.
1) Each test sample (2.5 μL/eye) was instilled into both eyes of 9-month-old C57BL/6J mice with a Pipetman once per day (around 9:00) for 7 days. 2) After the final instillation, the mice were euthanized by carbon dioxide inhalation, and then the eyeballs were extracted and rinsed with Hank's balanced salt solution (HBSS). 3) The sclera near the optic nerve was cut with a razor, the lens was removed through the incision, and the removed lens was immersed in HESS. 4) The lens was placed on a glass slide, and an all-in-one fluorescence microscope BZ-9000 (Keyence) was used to capture an image of the lens (Image a). 5) Next, one cover glass (Corning^(registered trade mark) 22×22 mm Square) was placed on the lens, and an image in which the thickness of the lens changed due to the weight was similarly captured (Image b). 6) A change in the lens diameter was calculated from the following Equation 1 wherein the lens diameter of Image a is subtracted from the lens diameter of Image b. Then, the lens elasticity improvement of each sample group compared with the vehicle control group was calculated from Equation 2 described below. The mean value of the vehicle control group was based on 10 eyes, the mean values of Compound 1 sample group were based on 10 eyes.
as §1, §2

SMILES	Lens elasticity improvement (lens elasticity [1]; 0.03% (w/v) solution in Vehicle C, both eyes, 3 times per day for 14 days, 9-month-old mice)	lens elasticity improving effect (lens elasticity [1]; at a concentration of 0.03%)	Lens elasticity improvement (lens elasticity [2]; 0.01% (w/v) solution in Vehicle C, both eyes, once per day for 7 days, 9-month-old mice)	Lens elasticity improvement (lens elasticity [2]; 0.03% solution in Vehicle C, both eyes, once per day for 7 days, 9-month-old mice)	Lens elasticity improvement (lens elasticity [2]; 0.1% (w/v) solution in Vehicle C, both eyes, once per day for 7 days, 9-month-old mice)	Lens elasticity improvement (lens elasticity [2]; concentration of 0.1%, once-daily for 1 week)
C[N+](C)(C)CCOC(=O)CCCC[C@@H]1CCSS1.[Cl-] [EV06, Lipoic acid choline ester, reference compound]	3.6 μm	did not show lens elasticity improving effect	–	–	–	–
CC(C)=CCOC(=O)CCCC[C@@H]1CCSS1 [Compound 1, 3-Methyl-2-buten-1-yl (R)-5-(1,2-dithiolan-3-yl)pentanoate]	–	–	10.6 μm	20.3 μm	60.1 μm	potent lens elasticity improvement

— US20220151989A1, “LIPOIC ACID PRODRUG” (SANTEN PHARMACEUTICAL CO., LTD., priority 2019, published 2022)
